IC50 and DC50 data for 27 compounds are collected here from patent US20240308976A1, “COMPOUNDS THAT MEDIATE PROTEIN DEGRADATION AND USES THEREOF” (Monte Rosa Therapeutics, Inc., priority 2021, published 2024).

Test [1] has as its target CRBN-DDB1 (Homo sapiens, UniProt Q96SW2). The test can be described thus: Compound binding to CRBN by HTRF assay. The note with it: CRBN-DDB1 2.5 nM, Cy5-Thalidomide 100 nM, 30 min at ambient temperature; read-out: HTRF Class (Cereblon binding, HTRF IC50). In short, it runs like this: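 Cy5-thalidomide (100 nM) displacement from His-tagged CRBN-DDB1 (2.5 nM) read by terbium-cryptate HTRF (665/620 nm), in 20 mM HEPES, 20 mM NaCl, 0.2 mM TCEP, 0.2 mM EDTA, 0.005% Tween20. Compounds tested as 10-point 1:3 series, 30 min at ambient temperature. Signal normalised to DMSO and lenalidomide controls; IC50 fitted, Ki by Cheng-Prusoff.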

The target of test [2] is T1, GSPT1 (Homo sapiens, UniProt P15170+Q96SW2).
T1 construct: CAL-51 cells were purchased from DSMZ (cat. Number ACC302); host or cells: CAL-51
Put plainly: Immunofluorescence assay for activity to degrade GSPT1 in CAL-51 cells. The note with it: 6 h treatment, read-out: IF Class (GSPT1 degradation, DC50). The test is classed as cell-based. The method, boiled down:
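CAL-51 cells treated 6 h with compound (30 μM to 0.1 nM), fixed, immunostained for GSPT1 with DAPI and phalloidin counterstains, imaged by high-content microscopy. Mean per-cell GSPT1 intensity normalized to controls; DC50 by non-linear regression.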

T1 sequence (P15170 whole entry): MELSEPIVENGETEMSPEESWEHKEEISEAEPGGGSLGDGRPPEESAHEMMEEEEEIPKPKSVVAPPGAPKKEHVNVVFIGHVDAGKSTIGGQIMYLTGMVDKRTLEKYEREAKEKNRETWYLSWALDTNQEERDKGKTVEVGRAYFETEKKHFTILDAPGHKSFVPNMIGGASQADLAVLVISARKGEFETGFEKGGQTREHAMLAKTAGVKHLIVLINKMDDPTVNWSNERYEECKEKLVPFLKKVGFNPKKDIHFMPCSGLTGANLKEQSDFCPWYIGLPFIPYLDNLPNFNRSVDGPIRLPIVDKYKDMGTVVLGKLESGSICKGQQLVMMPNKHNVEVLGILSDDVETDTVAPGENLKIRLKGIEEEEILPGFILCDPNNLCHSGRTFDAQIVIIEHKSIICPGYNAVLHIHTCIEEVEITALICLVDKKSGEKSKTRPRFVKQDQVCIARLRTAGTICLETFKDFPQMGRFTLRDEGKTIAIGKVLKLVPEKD
T1 sequence (Q96SW2 whole entry): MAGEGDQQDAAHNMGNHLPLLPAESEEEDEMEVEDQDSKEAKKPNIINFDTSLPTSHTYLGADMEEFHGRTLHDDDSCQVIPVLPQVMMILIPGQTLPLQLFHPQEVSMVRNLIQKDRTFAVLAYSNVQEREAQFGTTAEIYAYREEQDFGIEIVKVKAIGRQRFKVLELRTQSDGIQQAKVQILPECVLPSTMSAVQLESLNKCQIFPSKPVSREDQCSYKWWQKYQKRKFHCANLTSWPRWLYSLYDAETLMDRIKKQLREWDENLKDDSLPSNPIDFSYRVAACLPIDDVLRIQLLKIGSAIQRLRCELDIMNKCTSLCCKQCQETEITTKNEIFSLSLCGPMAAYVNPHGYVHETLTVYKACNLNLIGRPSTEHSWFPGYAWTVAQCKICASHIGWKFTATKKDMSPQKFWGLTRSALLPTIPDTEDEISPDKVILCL
T1 sequence (Q16531 2-1140 partner limits assumed): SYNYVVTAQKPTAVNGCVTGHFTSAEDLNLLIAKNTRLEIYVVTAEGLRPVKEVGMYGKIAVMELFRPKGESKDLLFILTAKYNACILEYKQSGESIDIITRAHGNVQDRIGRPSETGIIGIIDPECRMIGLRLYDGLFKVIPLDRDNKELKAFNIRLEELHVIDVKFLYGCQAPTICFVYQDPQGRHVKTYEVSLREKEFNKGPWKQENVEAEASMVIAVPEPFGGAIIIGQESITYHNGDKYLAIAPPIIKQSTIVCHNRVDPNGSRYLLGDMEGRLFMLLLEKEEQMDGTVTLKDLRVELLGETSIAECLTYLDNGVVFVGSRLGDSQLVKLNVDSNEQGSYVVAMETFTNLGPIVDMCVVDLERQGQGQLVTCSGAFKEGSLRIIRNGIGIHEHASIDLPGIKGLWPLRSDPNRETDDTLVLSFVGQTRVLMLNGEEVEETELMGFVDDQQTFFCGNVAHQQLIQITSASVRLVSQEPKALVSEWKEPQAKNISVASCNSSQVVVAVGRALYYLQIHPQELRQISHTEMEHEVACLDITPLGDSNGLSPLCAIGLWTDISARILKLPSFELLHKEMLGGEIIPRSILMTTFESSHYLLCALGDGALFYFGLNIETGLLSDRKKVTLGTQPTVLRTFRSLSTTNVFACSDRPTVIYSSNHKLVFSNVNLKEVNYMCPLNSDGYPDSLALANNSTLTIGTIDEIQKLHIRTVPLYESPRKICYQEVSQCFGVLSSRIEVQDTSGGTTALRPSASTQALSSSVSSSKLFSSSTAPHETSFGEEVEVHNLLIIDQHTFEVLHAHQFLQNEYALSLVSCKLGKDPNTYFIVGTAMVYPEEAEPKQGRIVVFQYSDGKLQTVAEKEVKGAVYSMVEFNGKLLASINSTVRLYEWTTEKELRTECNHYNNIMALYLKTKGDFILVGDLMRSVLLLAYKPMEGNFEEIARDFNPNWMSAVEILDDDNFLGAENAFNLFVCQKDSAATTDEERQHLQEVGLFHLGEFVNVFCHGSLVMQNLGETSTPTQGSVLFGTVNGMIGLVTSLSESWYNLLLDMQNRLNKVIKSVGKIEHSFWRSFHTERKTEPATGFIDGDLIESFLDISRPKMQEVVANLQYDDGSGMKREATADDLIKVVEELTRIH
CRBN-DDB1, sequence (Q96SW2 whole entry): as the sequence (Q96SW2 whole entry) above
CRBN-DDB1, sequence (Q16531 whole entry partner): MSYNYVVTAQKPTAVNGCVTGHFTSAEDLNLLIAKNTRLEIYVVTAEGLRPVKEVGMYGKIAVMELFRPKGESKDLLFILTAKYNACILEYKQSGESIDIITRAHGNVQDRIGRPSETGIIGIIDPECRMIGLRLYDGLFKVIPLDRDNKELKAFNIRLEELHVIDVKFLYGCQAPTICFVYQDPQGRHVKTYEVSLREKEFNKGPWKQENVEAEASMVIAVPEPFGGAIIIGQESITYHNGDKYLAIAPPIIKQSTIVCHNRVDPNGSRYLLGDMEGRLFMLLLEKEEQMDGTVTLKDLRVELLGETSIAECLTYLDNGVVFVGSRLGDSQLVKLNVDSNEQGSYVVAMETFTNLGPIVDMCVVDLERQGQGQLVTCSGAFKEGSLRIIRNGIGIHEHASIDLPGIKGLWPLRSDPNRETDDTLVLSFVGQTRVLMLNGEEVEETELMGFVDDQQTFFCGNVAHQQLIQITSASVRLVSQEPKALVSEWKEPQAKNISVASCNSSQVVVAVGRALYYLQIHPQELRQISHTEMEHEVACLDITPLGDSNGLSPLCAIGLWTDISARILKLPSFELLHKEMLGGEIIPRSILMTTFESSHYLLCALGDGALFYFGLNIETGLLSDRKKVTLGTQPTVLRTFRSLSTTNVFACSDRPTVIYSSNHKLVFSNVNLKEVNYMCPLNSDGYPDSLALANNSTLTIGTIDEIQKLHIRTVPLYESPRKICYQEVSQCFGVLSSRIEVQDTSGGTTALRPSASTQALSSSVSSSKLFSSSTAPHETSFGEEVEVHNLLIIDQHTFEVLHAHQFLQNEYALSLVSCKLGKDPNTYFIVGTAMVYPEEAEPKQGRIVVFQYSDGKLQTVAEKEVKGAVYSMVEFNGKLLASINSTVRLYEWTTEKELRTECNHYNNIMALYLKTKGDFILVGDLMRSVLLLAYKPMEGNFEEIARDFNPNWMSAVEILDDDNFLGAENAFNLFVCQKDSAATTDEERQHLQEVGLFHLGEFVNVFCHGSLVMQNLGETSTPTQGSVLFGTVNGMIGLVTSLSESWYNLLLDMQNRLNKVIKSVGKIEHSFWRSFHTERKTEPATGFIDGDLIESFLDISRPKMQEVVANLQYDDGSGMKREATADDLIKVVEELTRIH

Broadly, the IC50 is the concentration at which inhibition is half-maximal. One may read the DC50 as the concentration giving 50% degradation. Consider `Cc1ccc(NC(=O)OC2CN(c3ccc(C4CCC(=O)NC4=O)c(Cl)c3F)C2)cc1Cl` (stereo not drawn) [Compound 54, 1-(3-chloro-4-(2,6-dioxopiperidin-3-yl)-2-fluorophenyl)azetidin-3-yl(3-chloro-4-methylphenyl)carbamate], for which, in test [1], the concentration for half-maximal inhibition (IC50) is more than 1000 nM. Besides, the DC50 in test [2] lay in the range of 30 to 300 nM.

On to `Cc1ccc(NC(=O)OC2CN(c3ccc(C4CCC(=O)NC4=O)cc3)C2)cc1Cl` (stereo not drawn) [Compound 55, 1-(4-(2,6-dioxopiperidin-3-yl)phenyl)azetidin-3-yl (3-chloro-4-methylphenyl)carbamate], for which the IC50 in test [1] was more than 1000 nM. In addition, in test [2], the half-maximal degradation concentration (DC50) fell in the range of 30 to 300 nM.

Turning to `COc1cc(C2CCC(=O)NC2=O)c(Cl)cc1N1CC(OC(=O)Nc2ccc(C)c(Cl)c2)C1` (stereo not drawn) [Compound 56, 1-(5-chloro-4-(2,6-dioxopiperidin-3-yl)-2-methoxyphenyl)azetidin-3-yl (3-chloro-4-methylphenyl)carbamate], the IC50 in test [1] is more than 1000 nM. For the same compound, in test [2], the 50% degradation concentration (DC50) is 30 to 300 nM.

`Cc1ccc(NC(=O)OC2CN(c3ccc(C4CCC(=O)NC4=O)c(C#N)c3)C2)cc1Cl` (stereo not drawn) [Compound 57, 1-(3-cyano-4-(2,6-dioxopiperidin-3-yl)phenyl)azetidin-3-yl(3-chloro-4-methylphenyl)carbamate]: the IC50 in test [1] is more than 1000 nM. In test [2], the 50% degradation concentration (DC50) lay in the range of 30 to 300 nM.

As for `CC1(c2ccc(NC(=O)OC3CN(c4cc(F)c(C5CCC(=O)NC5=O)c(F)c4)C3)cc2)CC1` (stereo not drawn) [Compound 58, 1-(4-(2,6-dioxopiperidin-3-yl)-3,5-difluorophenyl)azetidin-3-yl (4-(1-methylcyclopropyl)phenyl)carbamate], in test [1], the concentration for half-maximal inhibition (IC50) fell in the range of 100 to 1000 nM. Besides, the 50% degradation concentration (DC50) in test [2] lay in the range of 30 to 300 nM.

For `COc1c(N2CC(OC(=O)Nc3ccc(C)c(Cl)c3)C2)ccc(C2CCC(=O)NC2=O)c1Cl` (stereo not drawn) [Compound 59, 1-(3-chloro-4-(2,6-dioxopiperidin-3-yl)-2-methoxyphenyl)azetidin-3-yl (3-chloro-4-methylphenyl)carbamate], the IC50 in test [1] was more than 1000 nM. Further, in test [2], the DC50 was more than 300 nM.

Take `CC1(c2ccc(NC(=O)NC3CN(c4cc(F)c(C5CCC(=O)NC5=O)c(F)c4)C3)cc2)CC1` (stereo not drawn) [Compound 60, 1-(1-(4-(2,6-dioxopiperidin-3-yl)-3,5-difluorophenyl)azetidin-3-yl)-3-(4-(1-methylcyclopropyl)phenyl)urea]: the 50% inhibitory concentration (IC50) in test [1] was in the range of 100 to 1000 nM. The DC50 in test [2] was not above 30 nM.

On to `O=C1CCC(c2c(F)cc(N3CC(OC(=O)NC45CC(c6ccccc6)(C4)C5)C3)cc2F)C(=O)N1` (stereo not drawn) [Compound 61, 1-(4-(2,6-dioxopiperidin-3-yl)-3,5-difluorophenyl)azetidin-3-yl(3-phenylbicyclo[1.1.1]pentan-1-yl) carbamate], for which, in test [1], the concentration for half-maximal inhibition (IC50) lay within 100 to 1000 nM. For the same compound, the DC50 in test [2] was not above 30 nM.

Take `O=C1CCC(c2c(F)cc(N3CC(OC(=O)NC45CC(F)(C4)C5)C3)cc2F)C(=O)N1` (stereo not drawn) [Compound 62, 1-(4-(2,6-dioxopiperidin-3-yl)-3,5-difluorophenyl)azetidin-3-yl(3-fluorobicyclo[1.1.1]pentan-1-yl)carbamate]: the IC50 in test [1] fell in the range of 100 to 1000 nM. For the same compound, the DC50 in test [2] was more than 300 nM.

Regarding `O=C1CCC(c2c(F)cc(N3CC(OC(=O)NC45CC(C4)C5)C3)cc2F)C(=O)N1` (stereo not drawn) [Compound 63, 1-(4-(2,6-dioxopiperidin-3-yl)-3,5-difluorophenyl)azetidin-3-yl bicyclo[1.1.1]pentan-1-ylcarbamate], the IC50 in test [1] is 100 to 1000 nM. Further, in test [2], the 50% degradation concentration (DC50) was more than 300 nM.

As to `Cc1cc(NC(=O)OC2CN(c3cc(F)c(C4CCC(=O)NC4=O)c(F)c3)C2)cc(CN2CC3CC2CO3)c1C` (stereo not drawn) [Compound 64, 1-(4-(2,6-dioxopiperidin-3-yl)-3,5-difluorophenyl)azetidin-3-yl(3-(2-oxa-5-azabicyclo[2.2.1]heptan-5-ylmethyl)-4,5-dimethylphenyl) carbamate], the concentration for half-maximal inhibition (IC50) in test [1] is not above 100 nM. The 50% degradation concentration (DC50) in test [2] is not above 30 nM.

On to `O=C1CCC(c2c(F)cc(N3CC(OC(=O)NC45CC(N6CCCCC6)(C4)C5)C3)cc2F)C(=O)N1` (stereo not drawn) [Compound 65, 1-(4-(2,6-dioxopiperidin-3-yl)-3,5-difluorophenyl)azetidin-3-yl (3-(piperidin-1-yl)bicyclo[1.1.1]pentan-1-yl) carbamate], for which the IC50 in test [1] is not above 100 nM. The 50% degradation concentration (DC50) in test [2] is not above 30 nM.

In the case of `Cc1ccc(NC(=O)NC2CN(c3ccc(C4CCC(=O)NC4=O)cc3)C2)cc1Cl` (stereo not drawn) [Compound 66, 1-(3-chloro-4-methylphenyl)-3-(1-(4-(2,6-dioxopiperidin-3-yl)phenyl)azetidin-3-yl)urea], in test [1], the IC50 lay within 100 to 1000 nM. The DC50 in test [2] was in the range of 30 to 300 nM.

Regarding `Cc1cc(C)cc(NC(=O)NC2CN(c3ccc(C4CCC(=O)NC4=O)cc3)C2)c1` (stereo not drawn) [Compound 67, 1-(3,5-dimethylphenyl)-3-(1-(4-(2,6-dioxopiperidin-3-yl)phenyl)azetidin-3-yl)urea], the IC50 in test [1] was 100 to 1000 nM. In addition, the DC50 in test [2] was in the range of 30 to 300 nM.

With `O=C1CCC(c2c(F)cc(N3CC(OC(=O)NC45CC(CF)(C4)C5)C3)cc2F)C(=O)N1` (stereo not drawn) [Compound 68, 1-(4-(2,6-dioxopiperidin-3-yl)-3,5-difluorophenyl)azetidin-3-yl (3-(fluoromethyl)bicyclo[1.1.1]pentan-1-yl) carbamate], in test [1], the IC50 was not above 100 nM. Besides, in test [2], the half-maximal degradation concentration (DC50) was in the range of 30 to 300 nM.

On to `COc1ccc(C(F)(F)C23CC(NC(=O)OC4CN(c5cc(F)c(C6CCC(=O)NC6=O)c(F)c5)C4)(C2)C3)cc1` (stereo not drawn) [Compound 69, 1-(4-(2,6-dioxopiperidin-3-yl)-3,5-difluorophenyl)azetidin-3-yl (3-(difluoro(4-methoxyphenyl)methyl)bicyclo[1.1.1]pentan-1-yl)carbamate], for which, in test [1], the IC50 fell in the range of 100 to 1000 nM. Besides, the DC50 in test [2] is not above 30 nM.

Turning to `O=C1CCC(c2c(F)cc(N3CC(OC(=O)NC45CC(C(F)F)(C4)C5)C3)cc2F)C(=O)N1` (stereo not drawn) [Compound 70, 1-(4-(2,6-dioxopiperidin-3-yl)-3,5-difluorophenyl)azetidin-3-yl(3-(difluoromethyl)bicyclo[1.1.1]pentan-1-yl)carbamate], the IC50 in test [1] lay within 100 to 1000 nM. The DC50 in test [2] is not above 30 nM.

On to `O=C1CCC(c2c(F)cc(N3CC(OC(=O)NC45CC(N6CCOCC6)(C4)C5)C3)cc2F)C(=O)N1` (stereo not drawn) [Compound 71, 1-(4-(2,6-dioxopiperidin-3-yl)-3,5-difluorophenyl)azetidin-3-yl(3-morpholinobicyclo [1.1.1]pentan-1-yl) carbamate], for which, in test [1], the IC50 lay within 100 to 1000 nM. Besides, the DC50 in test [2] was more than 300 nM.

As for `COc1cc(C)c(Cl)cc1NC(=O)NC1CN(c2ccc(C3CCC(=O)NC3=O)cc2)C1` (stereo not drawn) [Compound 72, 1-(5-chloro-2-methoxy-4-methylphenyl)-3-(1-(4-(2,6-dioxopiperidin-3-yl)phenyl)azetidin-3-yl)urea], the 50% inhibitory concentration (IC50) in test [1] is more than 1000 nM. Also, the 50% degradation concentration (DC50) in test [2] fell in the range of 30 to 300 nM.

Regarding `O=C1CCC(c2c(F)cc(N3CC(NC(=O)NC45CC(c6ccccc6)(C4)C5)C3)cc2F)C(=O)N1` (stereo not drawn) [Compound 73, 1-(1-(4-(2,6-dioxopiperidin-3-yl)-3,5-difluorophenyl)azetidin-3-yl)-3-(3-phenylbicyclo[1.1.1]pentan-1-yl)urea], in test [1], the half-inhibitory concentration (IC50) is 100 to 1000 nM. For the same compound, the DC50 in test [2] was not above 30 nM.

With `O=C1CCC(c2ccc(N3CC(NC(=O)Nc4cc(OC(F)(F)F)ccn4)C3)cc2)C(=O)N1` (stereo not drawn) [Compound 74, 1-(1-(4-(2,6-dioxopiperidin-3-yl)phenyl)azetidin-3-yl)-3-(4-(trifluoromethoxy)pyridin-2-yl)urea], in test [1], the IC50 lay within 100 to 1000 nM. Also, the DC50 in test [2] is more than 300 nM.

Regarding `COC(=O)C12CC(NC(=O)OC3CN(c4cc(F)c(C5CCC(=O)NC5=O)c(F)c4)C3)(C1)C2` (stereo not drawn) [Compound 75, methyl 3-((((1-(4-(2,6-dioxopiperidin-3-yl)-3,5-difluorophenyl)azetidin-3-yl)oxy)carbonyl)amino)bicyclo[1.1.1]pentane-1-carboxylate], the IC50 in test [1] was in the range of 100 to 1000 nM. The DC50 in test [2] fell in the range of 30 to 300 nM.

`Cc1cc(NC(=O)OC2CN(c3cc(F)c(C4CCC(=O)NC4=O)c(F)c3)C2)ccc1F` (stereo not drawn) [Compound 76, 1-(4-(2,6-dioxopiperidin-3-yl)-3,5-difluorophenyl)azetidin-3-yl (4-fluoro-3-methylphenyl)carbamate]: the concentration for half-maximal inhibition (IC50) in test [1] was not above 100 nM. Besides, in test [2], the DC50 was not above 30 nM.

In the case of `O=C1CCC(c2c(F)cc(N3CC(NC(=O)N[C@H]4C[C@H](c5ccccc5)C4)C3)cc2F)C(=O)N1` (stereo partly drawn) [Compound 77, 1-(1-(4-(2,6-dioxopiperidin-3-yl)-3,5-difluorophenyl)azetidin-3-yl)-3-((1R,3R)-3-phenylcyclobutyl)urea], the IC50 in test [1] was 100 to 1000 nM. Besides, the DC50 in test [2] is not above 30 nM.

For `Cc1cc(F)cc(NC(=O)OC2CN(c3cc(F)c(C4CCC(=O)NC4=O)c(F)c3)C2)c1` (stereo not drawn) [Compound 78, 1-(4-(2,6-dioxopiperidin-3-yl)-3,5-difluorophenyl)azetidin-3-yl(3-fluoro-5-methylphenyl)carbamate], the IC50 in test [1] lay in the range of 100 to 1000 nM. Further, in test [2], the 50% degradation concentration (DC50) is not above 30 nM.

As to `O=C1CCC(c2c(F)cc(N3CC(OC(=O)NC4CCCCC4)C3)cc2F)C(=O)N1` (stereo not drawn) [Compound 79, 1-(4-(2,6-dioxopiperidin-3-yl)-3,5-difluorophenyl)azetidin-3-yl cyclohexylcarbamate], the IC50 in test [1] fell in the range of 100 to 1000 nM. Also, the half-maximal degradation concentration (DC50) in test [2] is 30 to 300 nM.

For `C[C@H]1C[C@@H](NC(=O)OC2CN(c3cc(F)c(C4CCC(=O)NC4=O)c(F)c3)C2)C1` (stereo partly drawn) [Compound 80, 1-(4-(2,6-dioxopiperidin-3-yl)-3,5-difluorophenyl)azetidin-3-yl ((1S,3S)-3-methylcyclobutyl)carbamate], the IC50 in test [1] is not above 100 nM. Moreover, the DC50 in test [2] is not above 30 nM.
